{"source": "ChEMBL document CHEMBL3414497", "about": "“Overcoming mutagenicity and ion channel activity: optimization of selective spleen tyrosine kinase inhibitors” (J Med Chem, 2015)", "key": {"in vivo [1]": {"test": "in vivo", "settings": "rat, plasma, po"}, "in vivo [2]": {"test": "in vivo", "settings": "rat, po"}, "Rattus norvegicus": {"organism": "Rattus norvegicus", "settings": "in vivo, po"}, "[3]": {"test": "Plasma concentration in collagen-induced Lewis rat arthritic model at 10 mg/kg, po qd measured at 2 hrs", "type": "ADME, organism-based", "design": "dose 10 mg/kg, route oral"}, "[4]": {"test": "Plasma concentration in collagen-induced Lewis rat arthritic model at 10 mg/kg, po qd measured at 4 hrs", "type": "ADME, organism-based", "design": "dose 10 mg/kg, route oral"}, "[5]": {"test": "Cmax in collagen-induced Lewis rat arthritic model at 3 mg/kg, po qd", "type": "ADME, organism-based", "design": "dose 3 mg/kg, route oral", "settings": "in vivo"}, "in vivo [6]": {"test": "in vivo", "settings": "rat, po", "remark": "listed apart in the source"}, "[7]": {"test": "Plasma concentration in collagen-induced Lewis rat arthritic model at 3 mg/kg, po qd measured at 4 hrs", "type": "ADME, organism-based", "design": "dose 3 mg/kg, route oral"}, "physchem [8]": {"test": "physchem"}, "[9]": {"test": "Plasma concentration in collagen-induced Lewis rat arthritic model at 1 mg/kg, po qd measured at 4 hrs", "type": "ADME, organism-based", "design": "dose 1 mg/kg, route oral"}, "[10]": {"test": "Plasma concentration in collagen-induced Lewis rat arthritic model at 3 mg/kg, po qd measured at 24 hrs", "type": "ADME, organism-based", "design": "dose 3 mg/kg, route oral"}, "[11]": {"test": "Plasma concentration in collagen-induced Lewis rat arthritic model at 1 mg/kg, po qd measured at 8 hrs", "type": "ADME, organism-based", "design": "dose 1 mg/kg, route oral"}, "[12]": {"test": "Plasma concentration in collagen-induced Lewis rat arthritic model at 1 mg/kg, po qd measured at 24 hrs", "type": "ADME, organism-based", "design": "dose 1 mg/kg, route oral"}, "physchem [13]": {"test": "physchem", "settings": "octanol/buffer"}, "Plasma [14]": {"test_system": "Plasma", "test": "Plasma concentration in collagen-induced Lewis rat arthritic model at 3 mg/kg, po qd measured immediately post compound dosing", "type": "ADME, organism-based", "design": "dose 3 mg/kg, route oral", "settings": "in vivo"}, "Plasma [15]": {"test_system": "Plasma", "test": "Plasma concentration in collagen-induced Lewis rat arthritic model at 1 mg/kg, po qd measured immediately post compound dosing", "type": "ADME, organism-based", "design": "dose 1 mg/kg, route oral", "settings": "in vivo"}, "[16]": {"test": "Plasma concentration in collagen-induced Lewis rat arthritic model at 3 mg/kg, po qd measured at 2 hrs", "type": "ADME, organism-based", "design": "dose 3 mg/kg, route oral"}, "[17]": {"test": "Plasma concentration in collagen-induced Lewis rat arthritic model at 1 mg/kg, po qd measured at 2 hrs", "type": "ADME, organism-based", "design": "dose 1 mg/kg, route oral"}, "[18]": {"test": "Plasma concentration in collagen-induced Lewis rat arthritic model at 3 mg/kg, po qd measured at 8 hrs", "type": "ADME, organism-based", "design": "dose 3 mg/kg, route oral"}, "Plasma [19]": {"test_system": "Plasma", "test": "Plasma concentration in collagen-induced Lewis rat arthritic model at 10 mg/kg, po qd measured immediately post compound dosing", "type": "ADME, organism-based", "design": "dose 10 mg/kg, route oral", "settings": "in vivo"}, "[20]": {"test": "Plasma concentration in collagen-induced Lewis rat arthritic model at 10 mg/kg, po qd measured at 8 hrs", "type": "ADME, organism-based", "design": "dose 10 mg/kg, route oral"}, "[21]": {"test": "Plasma concentration in collagen-induced Lewis rat arthritic model at 10 mg/kg, po qd measured at 24 hrs", "type": "ADME, organism-based", "design": "dose 10 mg/kg, route oral"}}}
{"smiles": "NC(=O)c1ncc(N[C@@H]2CCCC[C@@H]2N)nc1-c1cc2ccccc2[nH]1", "values": [{"measurement": "CL/F", "setting": "in vivo [1]", "result": 44, "unit": "mL/min/kg"}, {"measurement": "half-life", "setting": "in vivo [2]", "result": 2.8, "unit": "h"}, {"measurement": "CL free", "setting": "Rattus norvegicus", "result": 255, "unit": "mL/min/kg"}]}
{"smiles": "Cc1cc(C)nc(Nc2cc(N[C@@H]3CCCC[C@@H]3N)cnc2C(N)=O)c1", "values": [{"measurement": "concentration at 2 h", "setting": "[3]", "result": 200, "unit": "nM"}, {"measurement": "concentration at 4 h", "setting": "[4]", "result": 500, "unit": "nM"}, {"measurement": "Cmax", "setting": "[5]", "result": 200, "unit": "nM"}, {"measurement": "CL/F", "setting": "in vivo [1]", "result": 33, "unit": "mL/min/kg"}, {"measurement": "bioavailability", "setting": "in vivo [6]", "result": 19, "unit": "%"}, {"measurement": "concentration at 4 h", "setting": "[7]", "result": 200, "unit": "nM"}, {"measurement": "pKa at 100 µM", "setting": "physchem [8]", "result": 9}, {"measurement": "concentration at 4 h", "setting": "[9]", "result": 100, "unit": "nM"}, {"measurement": "concentration at 24 h", "setting": "[10]", "result": 7, "unit": "nM"}, {"measurement": "concentration at 8 h", "setting": "[11]", "result": 90, "unit": "nM"}, {"measurement": "concentration at 24 h", "setting": "[12]", "result": 5, "unit": "nM"}, {"measurement": "half-life", "setting": "in vivo [2]", "result": 2.7, "unit": "h"}, {"measurement": "logD at 500 µM", "setting": "physchem [13]", "result": 2.1}, {"measurement": "concentration", "setting": "Plasma [14]", "result": 7, "unit": "nM"}, {"measurement": "concentration", "setting": "Plasma [15]", "result": 5, "unit": "nM"}, {"measurement": "concentration at 2 h", "setting": "[16]", "result": 60, "unit": "nM"}, {"measurement": "CL free", "setting": "Rattus norvegicus", "result": 710, "unit": "mL/min/kg"}, {"measurement": "concentration at 2 h", "setting": "[17]", "result": 40, "unit": "nM"}, {"measurement": "concentration at 8 h", "setting": "[18]", "result": 100, "unit": "nM"}, {"measurement": "concentration", "setting": "Plasma [19]", "result": 10, "unit": "nM"}, {"measurement": "concentration at 8 h", "setting": "[20]", "result": 500, "unit": "nM"}, {"measurement": "concentration at 24 h", "setting": "[21]", "result": 10, "unit": "nM"}]}
{"smiles": "COc1cccc2[nH]c(-c3nc(N[C@@H]4CCOC[C@@H]4N)cnc3C(N)=O)cc12", "values": [{"measurement": "CL/F", "setting": "in vivo [1]", "result": 25, "unit": "mL/min/kg"}, {"measurement": "bioavailability", "setting": "in vivo [6]", "result": 29, "unit": "%"}, {"measurement": "half-life", "setting": "in vivo [2]", "result": 3.5, "unit": "h"}, {"measurement": "CL free", "setting": "Rattus norvegicus", "result": 100, "unit": "mL/min/kg"}]}
